Several values for one entry are separate records, joined by “and”; a condition that tells them apart may be missing. Equal entries are not always repeated. Where two headings read alike, the source gives them in different places.
Assays:
[1] = biological target: T1, EcFtsZ (Escherichia coli, UniProt P0A9A6); test: GTP induced EcFtsZ polymerization by light scattering (PK/PEP GTP regeneration system); type: biochemical
T1 construct: made in house; host or cells: E. coli BL21 (DE3)
Description: (§1) Polymerization of FtsZ was determined by light scattering. Light scattering was measured on a Perkin Elmer LS 50 spectrofluorimeter, illuminating with light at a wavelength of 350 nm (excitation) and recording at the same wavelength (emission). Excitation and emission bandwidth were 7 nm and a 4% transmittance filter was used in the emission path. Temperature was kept constant at 30°C.
(§2) Polymerization of FtsZ induced by GTP [with GTP regeneration system PK/PEP (Margalit et al., [2004])] was measured in the absence and the presence of dNAK 4. 12.5 μM FtsZ was pre-incubated in 50 mM HEPES pH 7.3, 50 mM KCl, 10 mM MgCl2, 1% DMSO, and 1 mM PEP. The reaction was started by adding the compound (at the concentration indicated in the figures), 4 units of PK and 1 mM GTP. For each polymerization reaction, a baseline was registered, which corresponds to the light scattering after adding the compound and prior to the induction of polymerization by the addition of GTP and PK.

[2] = tested on: E. coli; test: Live-cell imaging of cell division in CellASIC ONIX2 microfluidic chambers; type: cell-based, Escherichia coli; conditions: LB with 32 μM perfused 8 h, 37°C
Description: In order to evaluate the effect of dNAK 4 at a cellular level, we designed a live-cell imaging approach using the microfluidics platform CellASIC ONIX2 (Merck) coupled to a Lionheart FX automated microscope (BioTek). This setup allowed us to directly monitor the division of E. coli and B. subtilis cells inside microchambers, under a precisely controlled temperature (37°C) and the continuous perfusion of fresh culture medium. The microscope was set up to take one picture of each chamber every 10 min during the whole experiment (20 h), in order to get a continuous view of the division process occurring in a group of cells and its response to the perfusion of dNAK 4. First, cells of each strain were inoculated into separate microchambers, perfusing LB medium for 4 h while monitoring cell growth. Afterwards, LB supplemented with 32 μM dNAK 4 was perfused during the next 8 h. Finally, LB medium without dNAK 4 was perfused during the last 8 h in order to monitor the effect of washing the compound. […] After washing the compound, some B. subtilis cells seemed to partially recover the ability to divide.
2. Live-cell imaging of E. coli and B. subtilis cell division while grown in microfluidic chambers, in the presence or absence of dNAK 4. […]

[3] = tested on: normal and cancer cell; set-up: method as in Benites et al., 2016; conditions: ref Benites et al., 2016; cited from earlier work
[4] = biological target: T2, BsFtsZ (Bacillus subtilis, UniProt P17865); test: GDP induced BsFtsZ polymerization by light scattering; type: biochemical; conditions: 32 μM compound, 2 mM GDP, 12.5 μM protein
T2 construct: made in house; host or cells: E. coli DH10B
Description: as §1
(§3) Polymerization of FtsZ induced by GDP was measured in the absence and the presence of dNAK 4. 12.5 μM FtsZ was pre-incubated in 50 mM HEPES pH 7.3, 50 mM KCl, 10 mM MgCl2, 1% DMSO, and 2 mM GDP. The reaction was started by adding the compound at 32 μM final concentration.

[5] = biological target: T1, EcFtsZ; test: GDP induced EcFtsZ polymerization by light scattering; type: biochemical; conditions: 32 μM compound, 2 mM GDP, 12.5 μM protein
Description: as §1, §3

[6] = tested on: Bacillus subtilis BEM54; test: Growth inhibition halos on bacterial lawns; type: cell-based; set-up: key to growth inhibition halo: −: Absence (-) or presence (+) of growth inhibition halos on different bacterial lawns; Absence (-) or presence (+) of growth inhibition halos on different bacterial lawns; conditions: for growth inhibition halo: 5 µl, 37°C 5-6 h
Description: (§4) TABLE SM1. Effect of dNAK 4 tested directly on the growth of different bacterial […]
(§5) Strains Amount of dNAK 4 in DMSO 30% […]
(§6) Absence (-) or presence (+) of growth inhibition halos on different bacterial lawns.
(§7) The bacterial lawns for each strain listed in this Table were prepared as follow:
(§8) Bacterial cells were grown in Müller-Hinton (MH) media until an OD600 = 0.3. 300 µl of each culture was mixed with 5 ml of MH soft agar and poured into a plate containing 20 ml of MH hard agar. Once cooled, 5 µl of dNAK 4 dissolved in DMSO […]
(§9) the top agar and incubated at 37°C during 5-6 h until growth inhibition halos were […]
(§10) growth inhibition halos in any of the strains tested. As positive control the antibiotic minocycline was used. The experiments were performed by triplicate. The bacterial strains used in these experiments belong to our laboratory collection.

[7] = tested on: Enterobacter aerogenes BEM27; test: Growth inhibition halos on bacterial lawns; type: cell-based; set-up: key to growth inhibition halo: −: Absence (-) or presence (+) of growth inhibition halos on different bacterial lawns; Absence (-) or presence (+) of growth inhibition halos on different bacterial lawns; conditions: for growth inhibition halo: 5 µl, 37°C 5-6 h
Description: as §4, §5, §6, §7, §8, §9, §10

[8] = tested on: Proteus mirabilis BEM87; test: Growth inhibition halos on bacterial lawns; type: cell-based; set-up: key to growth inhibition halo: −: Absence (-) or presence (+) of growth inhibition halos on different bacterial lawns; Absence (-) or presence (+) of growth inhibition halos on different bacterial lawns; conditions: for growth inhibition halo: 5 µl, 37°C 5-6 h
Description: as §4, §5, §6, §7, §8, §9, §10

[9] = tested on: Pseudomonas aeruginosa BEM12; test: Growth inhibition halos on bacterial lawns; type: cell-based; set-up: key to growth inhibition halo: −: Absence (-) or presence (+) of growth inhibition halos on different bacterial lawns; Absence (-) or presence (+) of growth inhibition halos on different bacterial lawns; conditions: for growth inhibition halo: 5 µl, 37°C 5-6 h
Description: as §4, §5, §6, §7, §8, §9, §10

[10] = tested on: Escherichia coli K12; test: Growth inhibition halos on bacterial lawns; type: cell-based; set-up: key to growth inhibition halo: −: Absence (-) or presence (+) of growth inhibition halos on different bacterial lawns; Absence (-) or presence (+) of growth inhibition halos on different bacterial lawns; conditions: for growth inhibition halo: 5 µl, 37°C 5-6 h
Description: as §4, §5, §6, §7, §8, §9, §10

[11] = tested on: E. coli K12; test: Growth curves in liquid Müller-Hinton culture, E. coli; type: cell-based, Escherichia coli; conditions: up to 32 μM, 37°C
Description: (§11) Cells were grown in liquid culture medium Müller Hinton (MH) in the presence and absence of the compound. MH medium was inoculated with an overnight culture of each strain and grown until an OD600 of 0.6 was reached. Both cultures were then diluted to OD600 of 0.1 and subsequently divided into several cultures, where the controls (without the compound and with DMSO) and different concentrations of dNAK 4 were tested. Each experimental condition was assayed in 250 μL, six times, in a 96-well ELISA plate. The cultures were grown under agitation at 37°C in a plate spectrofluorimeter with absorbance module model TECAN Infinite M200 PRO and the OD600 was automatically registered every 15 min for 24 h.

[12] = biological target: T2, BsFtsZ; test: GTP induced BsFtsZ polymerization by light scattering (PK/PEP GTP regeneration system); type: biochemical
Description: as §1, §2

[13] = tested on: B. subtilis; test: Growth curves in liquid Müller-Hinton culture, B. subtilis; type: cell-based, Bacillus subtilis; conditions: for effective concentration (total growth arrest): liquid culture
Description: as §11

[14] = tested on: B. subtilis; test: Live-cell imaging of cell division in CellASIC ONIX2 microfluidic chambers; type: cell-based, Bacillus subtilis; conditions: LB with 32 μM perfused 8 h, 37°C
[15] = tested on: Staphylococcus aureus BEM42; test: Growth inhibition halos on bacterial lawns; type: cell-based; set-up: key: −: Absence (-) or presence (+) of growth inhibition halos on different bacterial lawns; Absence (-) or presence (+) of growth inhibition halos on different bacterial lawns; conditions: 5 µl, 37°C 5-6 h
Description: as §4, §5, §6, §7, §8, §9, §10

[16] = biological target: tubulin; set-up: method as in Gutiérrez et al., 2015; conditions: ref Gutiérrez et al., 2015; cited from earlier work
[17] = calculated from the EcFtsZ polymerization inhibition by the compounds, read-out: IFP (inhibition of EcFtsZ polymerization) expressed as IC50
[18] = at the concentration tested (0.05-2 µg)

T2 sequence (P17865 whole entry): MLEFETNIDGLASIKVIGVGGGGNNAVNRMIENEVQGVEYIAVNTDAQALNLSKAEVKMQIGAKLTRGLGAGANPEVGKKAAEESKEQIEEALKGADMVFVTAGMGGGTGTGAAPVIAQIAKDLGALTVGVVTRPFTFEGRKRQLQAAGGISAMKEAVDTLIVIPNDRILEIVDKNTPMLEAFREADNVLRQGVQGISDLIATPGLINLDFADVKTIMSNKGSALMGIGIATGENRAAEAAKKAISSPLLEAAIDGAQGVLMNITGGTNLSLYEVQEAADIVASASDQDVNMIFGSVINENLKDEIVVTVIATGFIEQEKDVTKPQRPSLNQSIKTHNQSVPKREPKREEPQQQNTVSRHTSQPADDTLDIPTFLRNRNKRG
T1 sequence (P0A9A6 whole entry): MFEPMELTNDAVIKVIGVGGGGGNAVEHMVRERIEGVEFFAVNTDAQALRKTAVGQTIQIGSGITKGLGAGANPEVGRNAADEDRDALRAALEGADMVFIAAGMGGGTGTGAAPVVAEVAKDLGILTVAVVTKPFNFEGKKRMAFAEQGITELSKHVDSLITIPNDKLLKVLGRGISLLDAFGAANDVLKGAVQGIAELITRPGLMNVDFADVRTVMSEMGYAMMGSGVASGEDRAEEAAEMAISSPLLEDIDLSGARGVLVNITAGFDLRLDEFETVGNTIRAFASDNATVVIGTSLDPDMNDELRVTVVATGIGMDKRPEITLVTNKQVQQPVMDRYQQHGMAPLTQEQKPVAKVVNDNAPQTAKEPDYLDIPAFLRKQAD

## O=C(c1cccs1)c1cc(O)c2ccccc2c1O [dNAK 1]
[1]; [17]
  IC50: 100 µM

## O=C(c1ccsc1)c1cc(O)c2ccccc2c1O [dNAK 2]
[1]; [17]
  IC50: 44 µM

## O=C(c1ccco1)c1cc(O)c2ccccc2c1O [dNAK 3]
[1]; [17]
  IC50: 39 µM

## O=C(c1ccc[nH]1)c1cc(O)c2ccccc2c1O [dNAK 4, (1,4-dihydroxy-naphthalen-2-yl)-(1H-pyrrol-2-yl)-methanone]
[2]
  effect on growth of E. coli cells: no effect
[3]
  effect on normal and cancer cell proliferation: no effect
[4]
  polymerization of BsFtsZ with GDP: induced
[5]
  polymerization of EcFtsZ with GDP: induced
[6]; 0.05 µg in DMSO 30%
  growth inhibition halo: −
[6]; 0.1 µg in DMSO 30%
  growth inhibition halo: +
[6]; 0.3 µg in DMSO 30%
  growth inhibition halo: +
[6]; 0.5 µg in DMSO 30%
  growth inhibition halo: +
[6]; 1 µg in DMSO 30%
  growth inhibition halo: +
[6]; 2 µg in DMSO 30%
  growth inhibition halo: +
[6]; bacterial lawn, B. subtilis
  lowest amount giving growth inhibition in plate assays: 0.1 µg
[7]; 0.05 µg in DMSO 30%
  growth inhibition halo: −
[7]; 0.1 µg in DMSO 30%
  growth inhibition halo: −
[7]; 0.3 µg in DMSO 30%
  growth inhibition halo: −
[7]; 0.5 µg in DMSO 30%
  growth inhibition halo: −
[7]; 1 µg in DMSO 30%
  growth inhibition halo: −
[7]; 2 µg in DMSO 30%
  growth inhibition halo: −
[7]; [18]
  inhibitory effect in plate assays: no inhibitory effect
[8]; 0.05 µg in DMSO 30%
  growth inhibition halo: −
[8]; 0.1 µg in DMSO 30%
  growth inhibition halo: −
[8]; 0.3 µg in DMSO 30%
  growth inhibition halo: −
[8]; 0.5 µg in DMSO 30%
  growth inhibition halo: +
[8]; 1 µg in DMSO 30%
  growth inhibition halo: +
[8]; 2 µg in DMSO 30%
  growth inhibition halo: +
[8]; bacterial lawn, P. mirabilis
  amount giving growth inhibition in plate assays: 0.3 to 0.5 µg
[9]; 0.05 µg in DMSO 30%
  growth inhibition halo: −
[9]; 0.1 µg in DMSO 30%
  growth inhibition halo: −
[9]; 0.3 µg in DMSO 30%
  growth inhibition halo: +
[9]; 0.5 µg in DMSO 30%
  growth inhibition halo: +
[9]; 1 µg in DMSO 30%
  growth inhibition halo: +
[9]; 2 µg in DMSO 30%
  growth inhibition halo: +
[9]; bacterial lawn, P. aeruginosa
  amount giving growth inhibition in plate assays: 0.3 to 0.5 µg
[10]; 0.05 µg in DMSO 30%
  growth inhibition halo: −
[10]; 0.1 µg in DMSO 30%
  growth inhibition halo: −
[10]; 0.3 µg in DMSO 30%
  growth inhibition halo: −
[10]; 0.5 µg in DMSO 30%
  growth inhibition halo: −
[10]; 1 µg in DMSO 30%
  growth inhibition halo: −
[10]; 2 µg in DMSO 30%
  growth inhibition halo: −
[10]; [18]
  inhibitory effect in plate assays: no inhibitory effect
[11]
  effect on E. coli K12 growth in liquid culture: no inhibitory effect
[12]
  IC50: 9.13 ± 0.66 µM
[13]; 32 μM, during 16 h, Müller-Hinton, 37°C
  B. subtilis growth in liquid culture: no growth
[13]
  effective concentration (total growth arrest): 32 µM
[13]; conversion of 32 μM
  effective concentration (total growth arrest): 8 µg/mL
[14]
  effect on growth of B. subtilis cells: complete growth arrest
[15]; 0.05 µg in DMSO 30%
  growth inhibition halo: −
[15]; 0.1 µg in DMSO 30%
  growth inhibition halo: +
[15]; 0.3 µg in DMSO 30%
  growth inhibition halo: +
[15]; 0.5 µg in DMSO 30%
  growth inhibition halo: +
[15]; 1 µg in DMSO 30%
  growth inhibition halo: +
[15]; 2 µg in DMSO 30%
  growth inhibition halo: +
[1]; from slope of light scattering increment after depolymerization vs concentration, PK/PEP GTP regeneration system, read-out: IFP expressed as IC50 (converted)
  IC50: 2.3 ± 0.1 µM
[1]; from steady-state slope of light scattering increment vs concentration, PK/PEP GTP regeneration system, read-out: IFP expressed as IC50 (converted)
  IC50: 4.6 µM and 4.4 µM
[16]
  Kd: 1.02 ± 0.23 µM

## COc1cc(C(=O)c2cc(O)c3ccccc3c2O)cc(OC)c1OC [dNAK 5]
[1]; [17]
  IC50: 81.5 µM

## O=C(c1ccc[nH]1)c1cc(O)ccc1O [dPAK 4, (2,5-dihydroxy-phenyl)-(1H-pyrrol-2-yl)-methanone]
[12]; 2-64 µM, 1% DMSO
  inhibitory effect over BsFtsZ polymerization: no inhibitory effect
[1]; 2-64 µM, 1% DMSO
  inhibitory effect over EcFtsZ polymerization: no inhibitory effect
